Laboratory results: ChEMBL document CHEMBL1140602, “A simple, yet highly accurate, QSAR model captures the complement inhibitory activity of compstatin” (Bioorg Med Chem, 2007)
Positions of bridges follow the written chain, without caps; N, C: chain ends. Non-standard residues stand in square brackets, D forms with d. Residues, ends and D or L forms follow the SMILES beside them. Abu = CC[C@H](N)C(=O)O

Test: Inhibition of C3b activation relative to compstatin

Row | SMILES | logIC50
1 | CC[C@H](C)[C@H](NC(C)=O)C(=O)N[C@H]1CSSC[C@@H](C(=O)N[C@H](C(N)=O)[C@@H](C)O)NC(=O)[C@H](CCCNC(=N)N)NC(=O)[C@H](Cc2cnc[nH]2)NC(=O)[C@H](Cc2cnc[nH]2)NC(=O)CNC(=O)[C@H](Cc2c[nH]c3ccccc23)NC(=O)[C@H](CC(=O)O)NC(=O)[C@H](CCC(N)=O)NC(=O)[C@H](C(C)C)NC(=O)[C@H](CC(C)C)NC1=O (Ac-ICLVQDWGHHRCT-NH2; disulfide 2-12) | 0.079
2 | CC[C@H](C)[C@H](NC(=O)[C@@H]1CSSC[C@H](NC(=O)[C@@H](NC(C)=O)[C@@H](C)CC)C(=O)N[C@@H](C(C)C)C(=O)N[C@@H](C)C(=O)N[C@@H](CCC(N)=O)C(=O)N[C@@H](CC(=O)O)C(=O)N[C@@H](Cc2c[nH]c3ccccc23)C(=O)NCC(=O)N[C@@H](C)C(=O)N[C@@H](Cc2cnc[nH]2)C(=O)N[C@@H](CCCNC(=N)N)C(=O)N1)C(N)=O (Ac-ICVAQDWGAHRCI-NH2; disulfide 2-12) | 0.477
3 | CC[C@H](C)[C@H](NC(C)=O)C(=O)N[C@H]1CSSC[C@@H](C(=O)N[C@H](C(N)=O)[C@@H](C)O)NC(=O)[C@H](CCCNC(=N)N)NC(=O)[C@H](Cc2cnc[nH]2)NC(=O)[C@H](Cc2cnc[nH]2)NC(=O)CNC(=O)[C@H](Cc2c[nH]c3ccccc23)NC(=O)[C@H](CC(=O)O)NC(=O)[C@H](CCC(N)=O)NC(=O)[C@H](Cc2ccccc2)NC(=O)[C@H](C(C)C)NC1=O (Ac-ICVFQDWGHHRCT-NH2; disulfide 2-12) | 0.721
4 | CC[C@H](C)[C@H](NC(C)=O)C(=O)N[C@H]1CSSC[C@@H](C(=O)N[C@H](C(N)=O)[C@@H](C)O)NC(=O)[C@H](CCCNC(=N)N)NC(=O)[C@H](Cc2cnc[nH]2)NC(=O)[C@H](Cc2cnc[nH]2)NC(=O)CNC(=O)[C@H](Cc2c[nH]c3ccccc23)NC(=O)[C@H](CC(=O)O)NC(=O)[C@H](CCC(N)=O)NC(=O)[C@H](Cc2cnc[nH]2)NC(=O)[C@H](C(C)C)NC1=O (Ac-ICVHQDWGHHRCT-NH2; disulfide 2-12) | 0.708
5 | CC[C@H](C)[C@H](NC(C)=O)C(=O)N[C@H]1CSSC[C@@H](C(=O)N[C@H](C(N)=O)[C@@H](C)O)NC(=O)[C@H](CCCNC(=N)N)NC(=O)[C@H](Cc2cnc[nH]2)NC(=O)[C@H](Cc2cnc[nH]2)NC(=O)CNC(=O)[C@H](Cc2c[nH]c3ccccc23)NC(=O)[C@H](CC(=O)O)NC(=O)[C@H](CCC(N)=O)NC(=O)[C@H](CO)NC(=O)[C@H](C(C)C)NC1=O (Ac-ICVSQDWGHHRCT-NH2; disulfide 2-12) | 0.022
6 | CC[C@H](C)[C@H](NC(C)=O)C(=O)N[C@H]1CSSC[C@@H](C(=O)N[C@H](C(N)=O)[C@@H](C)O)NC(=O)[C@H](C)NC(=O)[C@H](Cc2cnc[nH]2)NC(=O)[C@H](Cc2cnc[nH]2)NC(=O)CNC(=O)[C@H](Cc2c[nH]c3ccccc23)NC(=O)[C@H](CC(=O)O)NC(=O)[C@H](CC(N)=O)NC(=O)[C@H](C(C)C)NC(=O)[C@H](C(C)C)NC1=O (Ac-ICVVNDWGHHACT-NH2; disulfide 2-12) | -0.699
7 | CC[C@H](C)[C@H](NC(C)=O)C(=O)N[C@H]1CSSC[C@@H](C(=O)N[C@H](C(N)=O)[C@@H](C)O)NC(=O)[C@H](CCCNC(=N)N)NC(=O)[C@H](Cc2cnc[nH]2)NC(=O)[C@H](Cc2cnc[nH]2)NC(=O)CNC(=O)[C@H](Cc2c[nH]c3ccccc23)NC(=O)[C@H](CC(=O)O)NC(=O)[C@H](CC(N)=O)NC(=O)[C@H](C(C)C)NC(=O)[C@H](C(C)C)NC1=O (Ac-ICVVNDWGHHRCT-NH2; disulfide 2-12) | 0.456
8 | CC[C@H](C)[C@H](NC(C)=O)C(=O)N[C@H]1CSSC[C@@H](C(=O)N[C@H](C(N)=O)[C@@H](C)O)NC(=O)[C@H](C)NC(=O)[C@H](Cc2cnc[nH]2)NC(=O)[C@H](C)NC(=O)CNC(=O)[C@H](Cc2c[nH]c3ccccc23)NC(=O)[C@H](CC(=O)O)NC(=O)[C@H](CCC(N)=O)NC(=O)[C@H](C(C)C)NC(=O)[C@H](C(C)C)NC1=O (Ac-ICVVQDWGAHACT-NH2; disulfide 2-12) | 0.084
9 | CC[C@H](C)[C@H](NC(C)=O)C(=O)N[C@H]1CSSC[C@@H](C(=O)N[C@H](C(N)=O)[C@@H](C)O)NC(=O)[C@H](CCCNC(=N)N)NC(=O)[C@H](Cc2cnc[nH]2)NC(=O)[C@H](C)NC(=O)CNC(=O)[C@H](Cc2c[nH]c3ccccc23)NC(=O)[C@H](CC(=O)O)NC(=O)[C@H](CCC(N)=O)NC(=O)[C@H](C(C)C)NC(=O)[C@H](C(C)C)NC1=O (Ac-ICVVQDWGAHRCT-NH2; disulfide 2-12) | 0.617
10 | CC[C@H](C)[C@H](NC(=O)[C@@H]1CSSC[C@H](NC(=O)[C@@H](NC(C)=O)[C@@H](C)CC)C(=O)N[C@@H](C(C)C)C(=O)N[C@@H](C(C)C)C(=O)N[C@@H](CCC(N)=O)C(=O)N[C@@H](CC(=O)O)C(=O)N[C@@H](Cc2c[nH]c3ccccc23)C(=O)NCC(=O)N[C@@H](Cc2cnc[nH]2)C(=O)N[C@@H](Cc2cnc[nH]2)C(=O)N[C@@H](CCCNC(=N)N)C(=O)N1)C(N)=O (Ac-ICVVQDWGHHRCI-NH2; disulfide 2-12) | 0.574
11 | CC[C@@H]1NC(=O)CNC(=O)[C@H](Cc2c[nH]c3ccccc23)NC(=O)[C@H](CC(=O)O)NC(=O)[C@H](CCC(N)=O)NC(=O)[C@H](Cc2c[nH]c3ccccc23)NC(=O)[C@H](C(C)C)NC(=O)[C@@H](NC(=O)[C@@H](NC(C)=O)[C@@H](C)CC)CSSC[C@@H](C(=O)N[C@H](C(N)=O)[C@@H](C)O)NC(=O)[C@H](CCCNC(=N)N)NC(=O)[C@H](Cc2cnc[nH]2)NC1=O (Ac-ICVWQDWG[Abu]HRCT-NH2; disulfide 2-12) | 1.55
12 | CSCC[C@H](NC(C)=O)C(=O)N[C@H]1CSSC[C@@H](C(=O)N[C@@H](Cc2ccccc2)C(N)=O)NC(=O)[C@H](CCCNC(=N)N)NC(=O)[C@H](Cc2cnc[nH]2)NC(=O)CNC(=O)CNC(=O)[C@H](Cc2c[nH]c3ccccc23)NC(=O)[C@H](CC(=O)O)NC(=O)[C@H](CCC(N)=O)NC(=O)[C@H](Cc2cnc[nH]2)NC(=O)[C@H](C(C)C)NC1=O (Ac-MCVHQDWGGHRCF-NH2; disulfide 2-12) | -0.863
13 | CC(=O)N[C@@H](CCCNC(=N)N)C(=O)N[C@H]1CSSC[C@@H](C(=O)N[C@H](C(N)=O)[C@@H](C)O)NC(=O)[C@H](CCCNC(=N)N)NC(=O)[C@H](Cc2cnc[nH]2)NC(=O)[C@H](Cc2cnc[nH]2)NC(=O)CNC(=O)[C@H](Cc2c[nH]c3ccccc23)NC(=O)[C@H](CC(=O)O)NC(=O)[C@H](CCC(N)=O)NC(=O)[C@H](C(C)C)NC(=O)[C@H](C(C)C)NC1=O (Ac-RCVVQDWGHHRCT-NH2; disulfide 2-12) | 0.176
14 | CC(C)[C@@H]1NC(=O)[C@H](C(C)C)NC(=O)[C@@H](N)CSSC[C@@H](C(=O)O)NC(=O)[C@H](CCCNC(=N)N)NC(=O)[C@H](Cc2cnc[nH]2)NC(=O)[C@H](C)NC(=O)CNC(=O)[C@H](Cc2c[nH]c3ccccc23)NC(=O)[C@H](CC(=O)O)NC(=O)[C@H](CCC(N)=O)NC1=O (H-CVVQDWGAHRC-OH; disulfide 1-11) | -0.097
15 | CC(C)[C@@H]1NC(=O)[C@H](C(C)C)NC(=O)[C@@H](N)CSSC[C@@H](C(=O)O)NC(=O)[C@H](CCCNC(=N)N)NC(=O)[C@H](C)NC(=O)[C@H](Cc2cnc[nH]2)NC(=O)CNC(=O)[C@H](Cc2c[nH]c3ccccc23)NC(=O)[C@H](CC(=O)O)NC(=O)[C@H](CCC(N)=O)NC1=O (H-CVVQDWGHARC-OH; disulfide 1-11) | -0.79
